molecular target: DNA-PK (Homo sapiens, UniProt P78527); assay: DNA-PK Inhibition Assay (standard radiometric kinase assay, 33P-ATP, peptide substrate); type: biochemical; conditions: radiometric assay, approximately 6 nM DNA-PK, 100 μM ATP, 45 min; fit to competitive tight-binding inhibition; read-out: Ki for the inhibition of DNA-PK
Procedure, shortened: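 Radiometric transfer of 33P from ATP (100 μM) to peptide substrate (0.8 mg/mL) by about 6 nM DNA-PK with 10 μg/mL sheared dsDNA, pH 7.5 HEPES/MgCl2, 45 min, phosphoric acid quench, filter capture and scintillation counting. Ki fitted to a competitive tight-binding inhibition model.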

SMILES	Ki
CN1Cc2c(N[C@H]3CC[C@@H](Oc4cc(N5CCOCC5)cc5nccnc45)CC3)cccc2C1=O [Compound 340]	< 100 nM
COc1nc(N[C@H]2CC[C@@H](Oc3cc(N4CCOCC4)cc4nccnc34)CC2)c2cc[nH]c2n1 [Compound 383]	< 100 nM
Cc1nccc(N[C@H]2CC[C@@H](Oc3cc(C4=COCC4)cc4nccnc34)CC2)n1 [Compound 288]	< 100 nM
c1cc(N[C@H]2CC[C@@H](Oc3cc(N4CCOCC4)cc4nccnc34)CC2)nc(N2CCOCC2)n1 [Compound 534]	< 100 nM
Cc1nc(N[C@H]2CC[C@@H](Oc3cc(N4CCOCC4)cc4nccnc34)CC2)cc(N(C)C)n1 [Compound 602]	< 100 nM
c1cnc2c(O[C@H]3CC[C@@H](Nc4ncc(C5CCNC5)cn4)CC3)cc(N3CCOCC3)cc2n1 (stereo partly shown) [Compound 569]	< 100 nM
COCCOc1ccc(N[C@H]2CC[C@@H](Oc3cc(N4CCOCC4)cc4nccnc34)CC2)nc1 [Compound 625]	< 100 nM
N#CCCN1CCC(c2cnc(N[C@H]3CC[C@@H](Oc4cc(N5CCOCC5)cc5nccnc45)CC3)nc2)CC1 [Compound 519]	< 100 nM
c1cnc2c(O[C@H]3CC[C@@H](Nc4ncc(OCCCN5CCOCC5)cn4)CC3)cc(N3CCOCC3)cc2n1 [Compound 526]	< 100 nM

Next, values leading:

Ki	SMILES
< 100 nM	CCc1cc(N[C@H]2CC[C@@H](Oc3cc(N4CCOCC4)cc4nccnc34)CC2)ncn1 [Compound 651]
< 100 nM	c1nc2c(c(N[C@H]3CC[C@@H](Oc4cc(N5CCOCC5)cc5nccnc45)CC3)n1)OCC2 [Compound 464]
< 100 nM	COc1c(Cl)ncnc1N[C@H]1CC[C@@H](Oc2cc(N3CCOCC3)cc3nccnc23)CC1 [Compound 402]
< 100 nM	COc1cc(N[C@H]2CC[C@@H](Oc3cc(N4CCOCC4)cc4nccnc34)CC2)nc(C)n1 [Compound 659]
< 100 nM	Cn1ccc(N[C@H]2CC[C@@H](Oc3cc(N4CCOCC4)cc4nccnc34)CC2)n1 [Compound 649]
< 100 nM	Clc1cc(N[C@H]2CC[C@@H](Oc3cc(N4CCOCC4)cc4nccnc34)CC2)nc(C2CC2)n1 [Compound 605]
< 100 nM	Cc1nc(N[C@H]2CC[C@@H](Oc3cc(N4CCOCC4)cc4nccnc34)CC2)cc(C2CC2)n1 [Compound 636]
< 100 nM	FC(F)(F)c1cc(N[C@H]2CC[C@@H](Oc3cc(N4CCOCC4)cc4nccnc34)CC2)ncn1 [Compound 417]
< 100 nM	Cc1cnc(N[C@H]2CC[C@@H](Oc3cc(N4CCOCC4)cc4nccnc34)CC2)c(C)c1 [Compound 595]
< 100 nM	CN1CCC(Nc2ncnc(N[C@H]3CC[C@@H](Oc4cc(N5CCOCC5)cc5nccnc45)CC3)c2F)C1 (stereo partly shown) [Compound 381]

Source: patent US12251387B2, “Substituted quinoxalines and benzo[c][1,2,5]oxadiazoles as DNA-PK inhibitors” (Vertex Pharmaceuticals Incorporated, priority 2013, dated 2025)
